Measurements reported in patent US11242337B2, “Compounds useful for treating gastrointestinal tract disorders” (Ardelyx, Inc., priority 2017, dated 2022).

Legend:
NHE3 [1] = molecular target: T1, NHE3 (Homo sapiens, UniProt P48764); test: Cell-based assay of NHE-3 activity (pre-incubation inhibition), human; conditions: human Preincubation
T1 construct: expressed in transfected cells
T1 sequence (P48764 26-834): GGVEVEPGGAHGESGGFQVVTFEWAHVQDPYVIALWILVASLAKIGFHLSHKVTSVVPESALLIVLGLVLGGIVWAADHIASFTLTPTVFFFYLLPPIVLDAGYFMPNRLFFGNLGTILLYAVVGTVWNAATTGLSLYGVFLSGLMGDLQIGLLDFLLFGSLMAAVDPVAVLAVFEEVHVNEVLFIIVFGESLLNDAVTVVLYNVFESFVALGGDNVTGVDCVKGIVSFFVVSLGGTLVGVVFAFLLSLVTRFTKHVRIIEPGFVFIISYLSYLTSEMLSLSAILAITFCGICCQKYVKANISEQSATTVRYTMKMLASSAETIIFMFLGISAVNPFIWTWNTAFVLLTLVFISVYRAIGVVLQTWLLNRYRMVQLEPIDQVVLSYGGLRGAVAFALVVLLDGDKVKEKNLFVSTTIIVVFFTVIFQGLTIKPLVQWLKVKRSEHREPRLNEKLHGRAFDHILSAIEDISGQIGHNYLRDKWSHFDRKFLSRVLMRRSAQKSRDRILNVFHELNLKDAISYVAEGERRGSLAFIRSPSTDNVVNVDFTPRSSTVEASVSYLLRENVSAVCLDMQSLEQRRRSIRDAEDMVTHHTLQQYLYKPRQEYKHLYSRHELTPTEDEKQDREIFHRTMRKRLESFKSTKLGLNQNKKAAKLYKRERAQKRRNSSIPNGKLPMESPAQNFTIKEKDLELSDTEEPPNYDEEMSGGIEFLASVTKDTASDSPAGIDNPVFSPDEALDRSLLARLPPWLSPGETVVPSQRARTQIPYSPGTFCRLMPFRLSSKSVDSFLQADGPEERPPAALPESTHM
T1 sequence (Q99653 2-195 partner limits assumed): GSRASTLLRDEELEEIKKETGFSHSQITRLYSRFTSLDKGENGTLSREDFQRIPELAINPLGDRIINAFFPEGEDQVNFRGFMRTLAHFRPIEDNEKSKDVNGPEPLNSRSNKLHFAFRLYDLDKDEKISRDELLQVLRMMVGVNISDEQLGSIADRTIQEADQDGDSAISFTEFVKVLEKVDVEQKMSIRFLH
Outline: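 PS120 fibroblasts stably expressing human NHE3 and NHERF2, loaded 30 min at 37 °C with 5 μM BCECF-AM in NH4Cl buffer, then acidified 10 min at room temperature in Na+-free buffer with 0–30 μM compound. Initial rate of BCECF fluorescence ratio change (FLIPR) per minute taken as Na+/H+ activity.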

NHE3 [2] = molecular target: T1, NHE3; test: Cell-based assay of NHE-3 activity (persistent inhibition), human; conditions: human Persistence, 60 min incubation then washout
Outline: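 PS120 fibroblasts expressing human NHE3 with NHERF2 exposed to 0-30 μM compound for 60 min at RT, then washed out; cells acid-loaded by NH4Cl prepulse with BCECF-AM and Na+-free buffer. Na+-driven pH recovery started 10 min post-washout; initial rate of BCECF ratio change (FLIPR) taken as activity.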

N[C@@H]1CCCN([C@H]2Cc3c(Cl)cc(Cl)cc3[C@@H]2Oc2c(F)cc(S(=O)(=O)NCCOCCOCCNC(=O)NCCCCNC(=O)NCCOCCOCCNS(=O)(=O)c3cc(F)c(O[C@H]4c5cc(Cl)cc(Cl)c5C[C@@H]4N4CCC[C@@H](N)C4)c(F)c3)cc2F)C1 [Example 85, 3-[2-(2-[2-[(4-[[(1S,2S)-2-[(3R)-3-Aminopiperidin-1-yl]-4,6-dichloro-2,3-dihydro-1H-1-inden-1-yl]oxy]-3,5-difluorobenzene)sulfonamido]ethoxy]ethoxy)ethyl]-1-[4-([[2-(2-[2-[(4-[[(1S,2S)-2-[(3R)-3-aminopiperidin-1-yl]-4,6-dichloro-2,3-dihydro-1H-inden-1-yl]oxy]-3,5-difluorobenzene)sulfonamido]ethoxy]ethoxy)ethyl]carbamoyl]amino)butyl]urea; bis(trifluoroacetic acid)]
% inhibition (NHE3 [1]): C (>70%)
% inhibition (NHE3 [2]): C (>70%)

CN(C)[C@H]1Cc2c(Cl)cc(Cl)cc2[C@@H]1Oc1c(F)cc(S(=O)(=O)NCCOCCOCCNC(=O)NCCCCNC(=O)NCCOCCOCCNS(=O)(=O)c2cc(F)c(O[C@H]3c4cc(Cl)cc(Cl)c4C[C@@H]3N(C)C)c(F)c2)cc1F [Example 86]
% inhibition (NHE3 [1]): C (>70%)
pIC50 (NHE3 [1]; 0-30 μM test compound): C (NHE3 pIC50 > 7)
% inhibition (NHE3 [2]): C (>70%)
pIC50 (NHE3 [2]): C (NHE3 pIC50 > 7)

Cc1cc(O[C@H]2c3cc(Cl)cc(Cl)c3C[C@@H]2N2CCC[C@@H](N)C2)c(F)cc1S(=O)(=O)NCCOCCOCCNC(=O)NCCCCNC(=O)NCCOCCOCCNS(=O)(=O)c1cc(F)c(O[C@H]2c3cc(Cl)cc(Cl)c3C[C@@H]2N2CCC[C@@H](N)C2)cc1C [Example 87, 3-[2-(2-[2-[(4-[[(1S,2S)-2-[(3R)-3-Aminopiperidin-1-yl]-4,6-dichloro-2,3-dihydro-1H-inden-1-yl]oxy]-5-fluoro-2-methylbenzene)sulfonamido]ethoxy]ethoxy)ethyl]-1-[4-([[2-(2-[2-[(4-[[(1S,2S)-2-[(3R)-3-aminopiperidin-1-yl]-4,6-dichloro-2,3-dihydro-1H-inden-1-yl]oxy]-5-fluoro-2-methylbenzene)sulfonamido]ethoxy]ethoxy)ethyl]carbamoyl]amino)butyl]urea; bis(trifluoroacetic acid)]
% inhibition (NHE3 [1]): C (>70%)
% inhibition (NHE3 [2]): C (>70%)

Cc1cc(S(=O)(=O)NCCOCCOCCNC(=O)NCCCCNC(=O)NCCOCCOCCNS(=O)(=O)c2cc(C)c(O[C@H]3c4cc(Cl)cc(Cl)c4C[C@@H]3N3CCC[C@@H](N)C3)cc2F)c(F)cc1O[C@H]1c2cc(Cl)cc(Cl)c2C[C@@H]1N1CCC[C@@H](N)C1 [Example 89, 3-[2-(2-[2-[(4-[[(1S,2S)-2-[(3R)-3-Aminopiperidin-1-yl]-4,6-dichloro-2,3-dihydro-1H-inden-1-yl]oxy]-2-fluoro-5-methylbenzene)sulfonamido]ethoxy]ethoxy)ethyl]-1-[4-([[2-(2-[2-[(4-[[(1S,2S)-2-[(3R)-3-aminopiperidin-1-yl]-4,6-dichloro-2,3-dihydro-1H-inden-1-yl]oxy]-2-fluoro-5-methylbenzene)sulfonamido]ethoxy]ethoxy)ethyl]carbamoyl]amino)butyl]urea; bis(trifluoroacetic acid)]
% inhibition (NHE3 [1]): C (>70%)
% inhibition (NHE3 [2]): C (>70%)

Cc1cc(S(=O)(=O)NCCOCCOCCNC(=O)NCCCCNC(=O)NCCOCCOCCNS(=O)(=O)c2cc(C)c(O[C@H]3c4cc(Cl)cc(Cl)c4C[C@@H]3N(C)C)cc2F)c(F)cc1O[C@H]1c2cc(Cl)cc(Cl)c2C[C@@H]1N(C)C [Example 90, 3-[2-(2-[2-[(4-[[(1S,2S)-4,6-Dichloro-2-(dimethylamino)-2,3-dihydro-1H-inden-1-yl]oxy]-2-fluoro-5-methylbenzene)sulfonamido]ethoxy]ethoxy)ethyl]-1-[4-([[2-(2-[2-[(4-[[(1S,2S)-4,6-dichloro-2-(dimethylamino)-2,3-dihydro-1H-inden-1-yl]oxy]-2-fluoro-5-methylbenzene)sulfonamido]ethoxy]ethoxy)ethyl]carbamoyl]amino)butyl]urea; bis(trifluoroacetic acid)]
% inhibition (NHE3 [1]): C (>70%)
pIC50 (NHE3 [1]; 0-30 μM test compound): C (NHE3 pIC50 > 7)
% inhibition (NHE3 [2]): C (>70%)
IC50 (NHE3 [2]): 100 to 1000 nM

Cc1cc(S(=O)(=O)N[C@H]2CCN(CCOCCNC(=O)NCCCCNC(=O)NCCOCCN3CC[C@H](NS(=O)(=O)c4ccc(O[C@H]5c6cc(Cl)cc(C#N)c6C[C@@H]5N(C)C)c(C)c4)C3=O)C2=O)ccc1O[C@H]1c2cc(Cl)cc(C#N)c2C[C@@H]1N(C)C [Example 92, 1-(2-[2-[(3S)-3-[(4-[[(1S,2S)-6-Chloro-4-cyano-2-(dimethylamino)-2,3-dihydro-1H-inden-1-yl]oxy]-3-methylbenzene)sulfonamido]-2-oxopyrrolidin-1-yl]ethoxy]ethyl)-3-(4-[[(2-[2-[(3S)-3-[(4-[[(1S,2S)-6-chloro-4-cyano-2-(dimethylamino)-2,3-dihydro-1H-inden-1-yl]oxy]-3-methylbenzene)sulfonamido]-2-oxopyrrolidin-1-yl]ethoxy]ethyl)carbamoyl]amino]butyl)urea; bis(trifluoroacetic acid)]
% inhibition (NHE3 [1]): C (>70%)
pIC50 (NHE3 [1]; 0-30 μM test compound): C (NHE3 pIC50 > 7)
% inhibition (NHE3 [2]): C (>70%)
pIC50 (NHE3 [2]): C (NHE3 pIC50 > 7)

N[C@@H]1CCCN([C@H]2Cc3c(Cl)cc(Cl)cc3[C@@H]2Oc2ccc(S(=O)(=O)N3CC[C@@H](OCCOCCNC(=O)NCCCCNC(=O)NCCOCCO[C@@H]4CCN(S(=O)(=O)c5ccc(O[C@H]6c7cc(Cl)cc(Cl)c7C[C@@H]6N6CCC[C@@H](N)C6)cc5)C4)C3)cc2)C1 [Example 93, 3-[2-(2-[[(3R)-1-[(4-[[(1S,2S)-2-[(3R)-3-Aminopiperidin-1-yl]-4,6-dichloro-2,3-dihydro-1H-inden-1-yl]oxy]benzene)sulfonyl]pyrrolidin-3-yl]oxy]ethoxy)ethyl]-1-[4-([[2-(2-[[(3R)-1-[(4-[[(1S,2S)-2-[(3R)-3-aminopiperidin-1-yl]-4,6-dichloro-2,3-dihydro-1H-inden-1-yl]oxy]benzene)sulfonyl]pyrrolidin-3-yl]oxy]ethoxy)ethyl]carbamoyl]amino)butyl]urea]
% inhibition (NHE3 [1]): C (>70%)
IC50 (NHE3 [1]; 0-30 μM test compound): < 100 nM
% inhibition (NHE3 [2]): C (>70%)
IC50 (NHE3 [2]): < 100 nM

N[C@@H]1CCCN([C@H]2Cc3c(Cl)cc(Cl)cc3[C@@H]2Oc2ccc(S(=O)(=O)N3CC[C@H](OCCOCCNC(=O)NCCCCNC(=O)NCCOCCO[C@H]4CCN(S(=O)(=O)c5ccc(O[C@H]6c7cc(Cl)cc(Cl)c7C[C@@H]6N6CCC[C@@H](N)C6)cc5)C4)C3)cc2)C1 [Example 94, 3-[2-(2-[[(3S)-1-[(4-[[(1S,2S)-2-[(3R)-3-Aminopiperidin-1-yl]-4,6-dichloro-2,3-dihydro-1H-inden-1-yl]oxy]benzene)sulfonyl]pyrrolidin-3-yl]oxy]ethoxy)ethyl]-1-[4-([[2-(2-[[(3S)-1-[(4-[[(1S,2S)-2-[(3R)-3-aminopiperidin-1-yl]-4,6-dichloro-2,3-dihydro-1H-inden-1-yl]oxy]benzene)sulfonyl]pyrrolidin-3-yl]oxy]ethoxy)ethyl]carbamoyl]amino)butyl]urea]
% inhibition (NHE3 [1]): C (>70%)
pIC50 (NHE3 [1]; 0-30 μM test compound): C (NHE3 pIC50 > 7)
% inhibition (NHE3 [2]): C (>70%)
pIC50 (NHE3 [2]): C (NHE3 pIC50 > 7)
